Test results: article PMC4085599, “Preliminary Studies on Validation of Calu-3 Cell Line as a Model for Screening Respiratory Mucosa Irritation and Toxicity” (Pharmaceutics, 2014)
Where two headings read alike, the source gives them in different places.

Experiments:
[1] = MTT cell viability assay on Calu-3 cells after exposure to test solutions; type: cell-based, Human; conditions: human, 60 min incubation, MTT, relative to negative control, n = 4, read-out: Calu-3 %Viability ± SD; for viability at 60 min, 0.2 % w/v: 0.2% w/v test solution; for viability at 60 min, 1 % w/v: 1.0% w/v test solution
Protocol: (§1) The Calu-3 cells were used at passages 5–10. They were cultured in 96-well plates (Fisher Scientific) in 1:1 DMEM/F-12 supplemented with 10% FBS, 1% Glutamax®, 100 U/mL penicillin, and […] streptomycin using our previously described method. The tissue culture medium was changed every two days.
(§2) Irritant selection, concentration and exposure time were based on mucociliary clearance time and published work in which the compounds were used. […] In order to provide a basis for comparison with other published work using other models three concentrations of the chemicals were selected (0.2%, 0.4% and 1.0%). To initiate the experiments, the cells were washed 3 times with PBS and allowed to equilibrate in 100 µL of buffered DMEM/F-12 (without phenol red) for 30 min. […] Cells were observed under the microscope for detachment before discarding the test solutions. Subsequently, the effect of the test compounds on the cells was determined using MTT assay.
(§3) Cell viability screening was based on cellular mitochondrial dehydrogenase (MDH) activity, measured by MTT reduction and conversion to blue formazan salt that was quantified after extraction from cells. MTT was used for predicting respiratory irritation because several studies have shown correlation between reduction in cell viability, decrease in epithelial electrical resistance and increases in biomarkers such as IL-1α and IL-1β. Cells grown in 96-well plates were used for the studies. After exposure of the cells to the solution of test compounds, the solutions were discarded and 100 μL of MTT (5.0 mg/mL) added to each well and incubated for 3 h at 37 °C. Subsequently, the MTT solution was removed and replaced with 100 μL isopropyl alcohol. The plates were then wrapped in aluminium foil and incubated for 2 h at 37 °C in order to extract formazan from the cells. Extracted formazan salt was quantified spectrophotometrically at 570 nm using Synergy™ HT multimode microplate reader (BioTek Instruments Incorporated). The absorbance of isopropyl alcohol (100 μL) was used as blank. The reduction of cell viability in treated cells was compared to negative control (cells incubated with DMEM/F-12) and expressed as a percentage.
(§4) Data acceptance criteria, calculation steps, interpretation and prediction model was done using the ECVAM Skin irritation Validation Study as contained in Standard Operating Procedure of Validation of the EpiSkin™ Test Method ^15 min–42 h for the prediction of acute skin irritation of chemicals. This was chosen because the model, as well as the cell viability assay method (MTT) has been accepted by intergovernmental agencies as being able to distinguish between irritants and non-irritants. However, we modified drug exposure time to reflect respiratory route of administration (15–60 min). […] Test compounds with mean relative viability values of 50% and below were considered irritant (I); those above 50% were considered non-irritant (NI) according to the ECVAM protocol.

Calu-3 cells = assay: as above; type: cell-based, Human; conditions: for Calu-3 model prediction (irritant if viability 50% and below) compared with European Union class / Calu-3 cells killed: 60 min exposure; for Calu-3 model prediction (irritant if viability 50% and below) compared with European Union class: ECVAM protocol; for Calu-3 %Viability ± SD: 60 min incubation, MTT, relative to negative control, n = 4; for Calu-3 cells killed: 0.2% w/v
Protocol: as §1, §2, §3, §4

[2] = parameters: method as in earlier work; conditions: ref [19],[20], cited from earlier work
eye = test system: eye; parameters: method as in PMID 12140180; conditions: ECETOC eye irritation data bank, ref [12], cited from earlier work; for European Union Irritation Class: Non-Irritating / European Union Irritation Class: R41 Risk of Serious Damage to Eye / European Union Irritation Class: R36 Irritating to Eye: tick = compound belongs to this class
Arion lusitanicus = test system: Arion lusitanicus; parameters: method as in Adriaens and Remon (2002) [12]; conditions: slug mucosal irritation model; ref Adriaens and Remon (2002) [12]; cited from earlier work

Molecule	viability at 60 min, 0.2 % w/v ([1]; Calu-3 cells)	viability at 60 min, 1 % w/v ([1]; Calu-3 cells)	Calu-3 model prediction (irritant if viability 50% and below) compared with European Union class (Calu-3 cells; 0.2% w/v test solution)	Calu-3 %Viability ± SD (Calu-3 cells; 0.2% w/v test solution)	Calu-3 model prediction (irritant if viability 50% and below) compared with European Union class (Calu-3 cells; 1.0% w/v test solution)	Log p Octanol–Water [2]	European Union Irritation Class: Non-Irritating (eye)	European Union Class (eye; as listed in Table 2)	European Union Class (eye; as listed in Table 3)	European Union Irritation Class: R41 Risk of Serious Damage to Eye (eye)	Calu-3 %Viability ± SD (Calu-3 cells; 0.2% w/v test solution, listed as acetone)	Calu-3 %Viability ± SD (Calu-3 cells; 1.0% w/v test solution)	Log p Octanol–Water ([2]; listed as acetone)	European Union Irritation Class: R36 Irritating to Eye (eye)	SMI model prediction compared with European Union class (Arion lusitanicus)	viability at 60 min, 1 % w/v [1]	Calu-3 cells killed (Calu-3 cells)	Calu-3 %Viability ± SD (Calu-3 cells; 1.0% w/v test solution, listed as sodium dodecyl sulphate USP)	Calu-3 %Viability ± SD (Calu-3 cells; 1.0% w/v test solution, listed as sodium hydroxide)
CCCC(C)CO (stereo not drawn) [2-Methyl-1-pentanol]	95.3 ± 13.1%	2.9 ± 0.2%	correctly predicted	95.0 ± 13.1%	false positive	1.75	√												
COCC(O)CO (stereo not drawn) [3-Methoxy-1,2-propanediol]	92.6 ± 4.1%	90.7 ± 4.3%	correctly predicted			−1.20	√												
Nc1ccc(F)cc1 [4-Fluoroaniline]	115 ± 5.9%	75.6 ± 10.9%	false negatives		false negatives			R41	R41	√									
CC(C)=O [Acetone]			false negative	100.4 ± 13.7%	false negatives	−0.24		R36	R36		no significant effect on the cell viability	95.4 ± 16.5%	negative Log p values	√	false negative				
CCO [Anhydrous ethanol]			correctly predicted	99.1 ± 3.9%			√					90.3 ± 8.0%							
CCCCCCCCCCCCCCCC[n+]1ccccc1 [Cetylpyridinium bromide]	8.1 ± 1.1%	5.4 ± 0.6%	correctly predicted		correctly predicted	1.83		R41	R41	√					correct predictions	< 17%			
OC1CCCCC1 [Cyclohexanol]			false negatives	89.9 ± 14.3%	false negatives	1.23		R41	R41	√		78.7 ± 11.7%							
OCC(O)CO [Glycerol]	85.6 ± 8.7%	86.5 ± 7%	correctly predicted				√												
c1c[nH]cn1 [Imidazole]								R41	R41										
CC(=O)CC(C)C [Methyl isobutyl ketone]	73.2 ± 7.4%	90.3 ± 7.1%	correctly identified as non-irritant	no significant effect on the cell viability			√								wrongly classified				
CCCCCCCCCCCCOS(=O)(=O)[O-].[Na+] [Sodium dodecyl sulphate USP]			correctly predicted	4.3 ± 0.1%	correctly predicted	1.60		R36	R36			9.0 ± 0.1%		√	over-predictions		more than 90%	less than 17%	
[Na+].[OH-] [Sodium hydroxide]				4.6 ± 0.4%	correctly predicted	0		R41	R41	√		14.9 ± 1.2%					about 95%		less than 17%
O=C([O-])C(=O)[O-].[Na+].[Na+] [Sodium oxalate]			false negative	65.4 ± 4.0%	false negatives			R41	R41	√		64.5 ± 11.5%							
Cc1ccccc1 [Toluene]	85.7 ± 13%	110 ± 6.6%					√												
PEG 400			correctly predicted	91.5 ± 4.6%		−1.21	√					92.2 ± 15.9%							
PEG 600			correctly predicted	85.9 ± 13.4%		−1.21	√					81.7 ± 10.8%							
Triton X-100			correctly predicted	3.5 ± 0.5%	correctly predicted	4.15		R36	R36					√	over-predictions		more than 90%		
Tween 20			correctly predicted	57.1 ± 8.1%	false positive	2.39	√					43.9 ± 2.5%			correct predictions				
